Columns and labels:
Assay type in all cases: cell-based
[1] = tested on: chimeric protein PPARγ-Gal4; experiment: PPAR activation, Gal4 chimera luciferase reporter gene test in co-transfected CV-1 cells; settings: 50 μM, CV-1 cells (monkey kidney cells), 18 hours contact
Procedure: (§1) The measurement of the PPAR activation was performed according to a technique described by Lehmann et al. (J. Biol. Chem., 270, (1995), 12953-12956).
(§2) CV-1 cells (monkey kidney cells) are co-transfected with an expression vector for the chimeric proteins PPARα-Gal4 or PPARγ-Gal4 and with a “reporter” plasmid that allows the expression of the luciferase gene placed under the control of a promoter containing Gal4 response elements.
(§3) The cells are plated into 96-well microplates and co-transfected using a commercial reagent with the reporter plasmid (pG5-tk-pGL3) and the expression vector for the chimeric protein ([…]). After incubating for 4 hours, whole culture medium (comprising 10% foetal calf serum) is added to the wells. After 24 hours, the medium is removed and replaced with whole medium comprising the test products (50 μM final). The products are left in contact with the cells for 18 hours. The cells are then lysed and the luciferase activity is measured using a luminometer. A PPAR activation factor can then be calculated by means of activation of the expression of the reporter gene induced by the product (relative to the control cells that have not received any product).

[2] = target: T1, chimeric protein PPARα-Gal4 (Homo sapiens, UniProt Q07869); experiment: as above; settings: 50 μM, CV-1 cells (monkey kidney cells), 18 hours contact
T1 construct: Gal4 (fusion partner); expressed in transfected cells; host or cells: CV-1 cells (monkey kidney cells)
T1 sequence (Q07869 239-466 limits assumed): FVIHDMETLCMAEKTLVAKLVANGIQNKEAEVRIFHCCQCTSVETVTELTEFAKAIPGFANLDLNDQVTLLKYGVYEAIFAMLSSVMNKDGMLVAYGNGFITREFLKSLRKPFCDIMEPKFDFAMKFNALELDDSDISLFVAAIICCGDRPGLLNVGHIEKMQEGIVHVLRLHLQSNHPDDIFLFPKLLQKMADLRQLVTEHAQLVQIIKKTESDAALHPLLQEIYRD
Procedure: as §1, §2, §3

Gal4 alone = experiment: Control: luciferase reporter test with vector expressing Gal4 alone (no PPAR ligand binding domain); settings: CV-1 cells; in the presence of the product
Procedure: CV-1 cells (monkey kidney cells) are co-transfected with an expression vector for the chimeric proteins PPARα-Gal4 or PPARγ-Gal4 and with a “reporter” plasmid that allows the expression of the luciferase gene placed under the control of a promoter containing Gal4 response elements. The cells are plated into 96-well microplates and co-transfected using a commercial reagent with the reporter plasmid (pG5-tk-pGL3) and the expression vector for the chimeric protein ([…]). After incubating for 4 hours, whole culture medium (comprising 10% foetal calf serum) is added to the wells. After 24 hours, the medium is removed and replaced with whole medium comprising the test products (50 μM final). The products are left in contact with the cells for 18 hours. The cells are then lysed and the luciferase activity is measured using a luminometer. A PPAR activation factor can then be calculated by means of activation of the expression of the reporter gene induced by the product (relative to the control cells that have not received any product). [drawing 12] at a concentration of 50 μM, activates the chimeric protein PPARα-Gal-4 by a factor of 2.3, and the chimeric protein […] by a factor of 6.4. In the absence of the binding domain for the PPAR α or γ ligand (vector expressing Gal4 alone), the luciferase activity measured in the presence of this product is zero.

activation factor of the chimeric protein PPARα-Gal-4 (reporter gene expression relative to control cells) [2]: 2.3
luciferase activity in the absence of the binding domain for the PPAR α or γ ligand (vector expressing Gal4 alone) (Gal4 alone): zero
SMILES: CCOC(=O)C(/C=C/c1ccccc1)Oc1ccccc1 (stereo not drawn)
activation factor of the chimeric protein PPARα-Gal4 (second mention; reporter gene expression relative to control cells) [1]: 6.4

Reference: US8247448B2, “Butenoic acid derivatives, processes for the preparation thereof, pharmaceutical compositions comprising them, and use for the treatment of dyslipidaemia, atherosclerosis and diabetes” (Merck Patent GmbH, priority 2003, dated 2012)
